8 compounds from publication PMC5581232 (European journal of medicinal chemistry, 2017) can be followed below.

Assay [1] concerns HBeAg secretion (HBV cccDNA formation). Description: HBeAg reporter cell-based assay. The arrangement: species or system Hepatitis B virus. To be noted: for Effect on secretion of HBeAg (in words): 3TC and ETV at 10 μM.
The test system of another assay is HBV. Kind of assay: Anti-HBV activity: HBV DNA replication. It is filed as cell-based, Hepatitis B virus. The note with it: for Anti-HBV activity (in words): HepAD38 cells.
The target in another assay is HBV Cp149 (Hepatitis B virus genotype D subtype ayw, UniProt P03146). Kind of assay: HBV Cp149 capsid formation by negative-stain electron microscopy. It is filed as biochemical. To be noted: 20 μM, 1 hr pre-incubation, assembly induced with NaCl overnight.
Chain of HBV Cp149 (P03146 1-149): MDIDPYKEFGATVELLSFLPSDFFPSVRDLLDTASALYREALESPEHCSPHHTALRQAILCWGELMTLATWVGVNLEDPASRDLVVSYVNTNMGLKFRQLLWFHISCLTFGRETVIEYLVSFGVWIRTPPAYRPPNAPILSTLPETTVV
Setting [2] is: Hepatitis B virus, HePAD38, read-out: HBeAg Secretion EC90, HepAD38 cells, ELISA.
Setting [3] is: read-out: HBeAg Secretion EC90, HepAD38 cells, ELISA.

Read-outs that look alike come from different tables or passages of the source.

What is called EC50 is the concentration needed to bring the measured effect to its halfway point. For orientation: EC90 means the concentration needed for an effect of 90%.

Turning to `Nc1ccn([C@@H]2CS[C@H](CO)O2)c(=O)n1` [Compound 3TC, lamivudine, reference compound], the “Effect on secretion of HBeAg (in words)” value in assay [1] (HepAD38 cells) is on record as “no effect”. In addition, in the assay on HBV (Hepatitis B virus, HePAD38, read-out: HBV DNA – Extracellular EC50), the 50% effective concentration (EC50) came out at 40 ± 30 nM.

In the case of `O=C(Nc1ccc(F)c(F)c1)c1cc(S(=O)(=O)NC2CCCC2)ccc1F` [Compound 4a, 5-(N-Cyclopentylsulfamoyl)-N-(3,4-difluorophenyl)-2-fluorobenzamide], on HBV Cp149, the “Effect on HBV Cp149 capsid formation (morphology, negative-stain TEM)” value (shortened to “Effect … (morphology, negative-stain TEM)”) was “form greater numbers of disfigured circular assemblies”. The figures for the concentration for an effect of 90% (EC90) in assay [1] (setting [2]) and in assay [1] (setting [3]) were 3000 to 4000 nM and 4600 ± 2000 nM, respectively.

Turning to `O=C(Nc1ccc(F)c(F)c1)c1cc(S(=O)(=O)N2CC(F)(F)C2)ccc1F` [Compound 4f, 5-((3,3-Difluoroazetidin-1-yl)sulfonyl)-N-(3,4-difluorophenyl)-2-fluorobenzamide], the “Effect … (morphology, negative-stain TEM)” value on HBV Cp149 is “a large number of incomplete, but typically spherical capsids aggregated into clusters”. Besides, the 90% effect concentration (EC90) in assay [1] (setting [2]) was 3000 to 4000 nM; in assay [1] (setting [3]) it was 3200 ± 10 nM.

Regarding `O=C(Nc1cc(S(=O)(=O)NC2CCCC2)ccc1F)c1ccc(F)c(F)c1` [Compound 16, N-(5-(N-Cyclopentylsulfamoyl)-2-fluorophenyl)-3,4-difluorobenzamide], the “Anti-HBV activity (in words)” value with HBV is listed as “complete loss of activity”.

On to `O=C(NC1(c2ccc(F)c(F)c2)CC1)c1cc(S(=O)(=O)NC2CCCC2)ccc1F` [Compound 19, 5-(N-Cyclopentylsulfamoyl)-N-(1-(3,4-difluorophenyl)cyclopropyl)-2-fluorobenzamide], for which, in the assay on HBV, the “Anti-HBV activity (in words)” value was “complete loss of activity”.

Consider `CC(C)(NC(=O)c1cccc(S(=O)(=O)NC2CCCC2)c1)c1ccc(F)c(F)c1` [Compound 21, 3-(N-Cyclopentylsulfamoyl)-N-(2-(3,4-difluorophenyl)propan-2-yl)benzamide], for which the “Effect … (morphology, negative-stain TEM)” value on HBV Cp149 is listed as “properly formed HBV Cp149 capsids”. Also, the “Anti-HBV activity (in words)” value in the assay on HBV was “complete loss of activity”.

As to `C=C1[C@H](CO)[C@@H](O)C[C@@H]1n1cnc2c(=O)[nH]c(N)nc21.O` [ETV, entecavir], the “Effect on secretion of HBeAg (in words)” value in assay [1] (HepAD38 cells) is “no effect”.

For the compound `CCOC(=O)C1=C(CN2CCOCC2)NC(c2nccs2)=NC1c1ccc(F)cc1Br` (stereo not shown) [GLS-4], the “Effect on secretion of HBeAg (in words)” value in assay [1] (HepAD38 cells) is “reduced secretion of HBeAg”. Moreover, the figures for the EC90 in assay [1] (setting [2]) and in assay [1] (setting [3]) were 2000 nM and 1900 ± 40 nM, respectively.
